Assay results: ChEMBL document CHEMBL3217462, “FP Tethering: a screening technique to rapidly identify compounds that disrupt protein-protein interactions” (Medchemcomm, 2014)

Key:
Homo sapiens [1] = organism: Homo sapiens; assay: Binding affinity to CBP KIX domain N627C mutant (unknown origin) after 1 hr by Fluorescent polarization assay
Homo sapiens [2] = organism: Homo sapiens; assay: Displacement of fluorescent-labelled MLL from CBP KIX domain N627C mutant (unknown origin) at 250 uM after 1 hr by Fluorescent polarization assay
[3] = (§1) Displacement of fluorescent-labelled MLL from CBP KIX domain N627C mutant (unknown origin) after 1 hr by Fluorescent polarization assay; set-up: species or system Homo sapiens
Homo sapiens [4] = organism: Homo sapiens; assay: as §1
Homo sapiens [5] = organism: Homo sapiens; assay: Binding affinity to CBP KIX domain H602C mutant (unknown origin) after 1 hr by Fluorescent polarization assay
Homo sapiens [6] = organism: Homo sapiens; assay: Displacement of fluorescent-labelled pKID from CBP KIX domain H602C mutant (unknown origin) after 1 hr by Fluorescent polarization assay; conditions: concentration not given here
Homo sapiens [7] = organism: Homo sapiens; assay: Binding affinity to CBP KIX domain H602C mutant (unknown origin) assessed as increase in binding affinity constant for c-Myb by fluorescence polarization tethering assay
Homo sapiens [8] = organism: Homo sapiens; assay: Binding affinity to CBP KIX domain H602C mutant (unknown origin) assessed as increase in binding affinity constant for phosphorylated KID by fluorescence polarization tethering assay
Homo sapiens [9] = organism: Homo sapiens; assay: Binding affinity to CBP KIX domain H602C mutant (unknown origin) assessed as increase in binding affinity constant for MLL by fluorescence polarization tethering assay

| SMILES | Activity (Homo sapiens [1]) [%] | inhibition (Homo sapiens [2]) [%] | IC50 [3] [µM] | inhibition (Homo sapiens [4]) | Activity (Homo sapiens [5]) [%] | inhibition (Homo sapiens [6]) [%] | fold change (FC) (Homo sapiens [7]) | fold change (FC) (Homo sapiens [8]) | fold change (FC) (Homo sapiens [9]) |
| --- | --- | --- | --- | --- | --- | --- | --- | --- | --- |
| COc1ccc2cc([C@H](C)C(=O)NCCSSCCN)ccc2c1 | 36 | 32 | – | – | – | – | – | – | – |
| CN(C)CCSSCCC(=O)N1CCC(O)(c2ccc(Cl)c(C(F)(F)F)c2)CC1 | 67 | 44 | 68 | Dose-dependent effect | – | – | – | – | – |
| CN(C)CCSSCCNC(=O)C1CCN(C(=O)c2ccccc2Nc2ccccc2)CC1 | – | – | – | – | 15 | 22 | – | – | – |
| CC(=O)Nc1ccc(Cl)c(NC(=O)NCCSSCCN(C)C)c1 | – | – | – | – | 71 | 24 | 9 | 6.5 | 9 |
